For test [1], the system named is Rattus norvegicus. Description: Antihypertensive activity in conscious SHR rat assessed as maximal change in tail arterial blood pressure at 50 mg/kg, iv measured at 10 mins interval relative to blood pressure obtained at preinjection. It is filed as functional, Artery.
Test [2] concerns Rattus norvegicus. Kind of test: Antihypertensive activity in iv dosed conscious SHR rat assessed as maximal change in tail arterial blood pressure measured at 10 mins interval by dose-response curve analysis. It is filed as functional. To be noted: Artery.
In test [3] the test system is Rattus norvegicus. Description: Antihypertensive activity in conscious SHR rat assessed as maximal change in tail arterial blood pressure at 20 mg/kg, iv measured at 10 mins interval relative to blood pressure obtained at preinjection. It is filed as functional, Artery.
The subject of test [4] is Rattus norvegicus. Description: Antihypertensive activity in iv dosed conscious normotensive WKY rat assessed as maximal change in tail arterial blood pressure measured at 10 mins interval by dose-response curve analysis. It is filed as functional. To be noted: Artery.
Test [5] deals with Rattus norvegicus. Kind of test: Antihypertensive activity in conscious SHR rat assessed as lowering of tail arterial mean blood pressure at 5 mg/kg during 10 to 130 mins by indirect tail-cuff method. It is filed as functional, organism-based. The arrangement: dose 5 mg/kg. The following applies: Artery.
In test [6] the test system is Rattus norvegicus. Description: Induction of hypotensive effect in conscious normotensive WKY rat. It is filed as functional, organism-based.
In test [7] the test system is Rattus norvegicus. Kind of test: Antihypertensive activity in conscious SHR rat assessed as maximal change in tail arterial blood pressure at 10 mg/kg, iv measured at 10 mins interval relative to blood pressure obtained at preinjection. It is filed as functional, Artery.
Test [8] concerns Rattus norvegicus. Kind of test: Antihypertensive activity in conscious SHR rat assessed as maximal change in tail arterial blood pressure at 15 mg/kg, iv measured at 10 mins interval relative to blood pressure obtained at preinjection. It is filed as functional, Artery.
Test [9] concerns Rattus norvegicus. Kind of test: Induction of […] activity in conscious normotensive WKY rat assessed as maximal change in tail arterial blood pressure at 15 mg/kg, iv measured at 10 mins interval relative to blood pressure obtained at preinjection. The arrangement: dose 15 mg/kg. It is filed as functional, organism-based.

Usually ED50 stands for the midpoint of the dose-response relation.

Structures are written as SMILES. Active and inactive are the calls of the source. The calls are words filed in the database; no cut-off is given here.

In the case of `O=C(OC[C@H]1O[C@@H](OC(=O)c2cc(O)c(O)c(O)c2)[C@H](OC(=O)c2cc(O)c(O)c(O)c2)[C@@H](OC(=O)c2cc(O)c(O)c(O)c2)[C@@H]1O)c1cc(O)c(O)c(O)c1`, in the test with Rattus norvegicus [1], the Activity is recorded as 2.3 mmHg.
The same measure, in the same setting: under `O=C1O[C@@H]2[C@@H](OC(=O)c3cc(O)c(O)c(O)c3-c3c1cc(O)c(O)c3O)[C@H](O)[C@@H](CO)O[C@H]2O` stands -5.5 mmHg; under `O=C(OC[C@H]1O[C@@H](O)[C@H](OC(=O)c2cc(O)c(O)c(O)c2)[C@@H](OC(=O)c2cc(O)c(O)c(O)c2)[C@@H]1OC(=O)c1cc(O)c(O)c(O)c1)c1cc(O)c(O)c(O)c1`, -5.2 mmHg.
The same measure, in the same setting: under `O=C(O[C@@H]1[C@@H](OC(=O)c2cc(O)c(O)c(O)c2)[C@H](O)[C@@H](CO)O[C@H]1O)c1cc(O)c(O)c(O)c1` stands 4.52 mmHg.
Turning to `O=C1OC[C@H]2OC(=O)c3cc(O)c(O)c(O)c3-c3c(O)c(O)c(O)c4c3C(=O)O[C@H]([C@H]3OC(=O)c5c-4c(O)c(O)c(O)c5[C@H]3O)[C@@H]2OC(=O)c2cc(O)c(O)c(O)c2-c2c1cc(O)c(O)c2O` [CASTALAGIN], the Activity entry in the test on Rattus norvegicus [2] is “Dose-dependent effect”; in the test on Rattus norvegicus [3], -49.6 mmHg. In addition, the ED50 in the test on Rattus norvegicus [2] turned out to be 6.3 mg/kg; in the test on Rattus norvegicus [4], 6.4 mg/kg. Further, the outcome with Rattus norvegicus [5] and in the test on Rattus norvegicus [6] was Active.
With `O=C(O)C[C@@H]1C(=O)O[C@H]2[C@@H]3OC(=O)c4cc(O)c(O)c(O)c4-c4c(cc(O)c(O)c4O)C(=O)OC[C@H]2O[C@@H](OC(=O)c2cc(O)c(O)c(O)c2)[C@@H]3OC(=O)c2cc(O)c(O)c3c2[C@H]1[C@H](O)C(=O)O3` [CHEBULAGIC ACID], the Activity in the test on Rattus norvegicus [1] is given as -6.5 mmHg.
Take `O=C(O)C[C@H]1C(=O)O[C@H]2[C@H](OC(=O)c3cc(O)c(O)c(O)c3)[C@@H](OC(=O)c3cc(O)c(O)c4c3[C@H]1[C@H](O)C(=O)O4)[C@H](OC(=O)c1cc(O)c(O)c(O)c1)O[C@@H]2COC(=O)c1cc(O)c(O)c(O)c1` [CHEBULINIC ACID]: the Activity result in the test on Rattus norvegicus [2] was “Dose-dependent effect”; in the test on Rattus norvegicus [7], -76.9 mmHg. Besides, the ED50 with Rattus norvegicus [2] stood at 3.2 mg/kg; in the test with Rattus norvegicus [4] it was 3.4 mg/kg. Moreover, the outcome in the test on Rattus norvegicus [5] and in the test on Rattus norvegicus [6] was Active.
In the case of `O=C(O[C@@H]1O[C@@H]2COC(=O)c3cc(O)c(O)c(O)c3-c3c(cc(O)c(O)c3O)C(=O)O[C@H]([C@H]1O)[C@@H]2O)c1cc(O)c(O)c(O)c1` [CORILAGIN], the values for the Activity result with Rattus norvegicus [2] and in the test with Rattus norvegicus [3] were “Dose-dependent effect” and -52.6 mmHg, respectively. The ED50 in the test with Rattus norvegicus [2] was determined as 6.7 mg/kg; in the test with Rattus norvegicus [4], 6.5 mg/kg. Moreover, the result in the test with Rattus norvegicus [5] and with Rattus norvegicus [6] was Active.
For the compound `O=C(OC[C@H]1O[C@@H](OC(=O)c2cc(O)c(O)c(O)c2)[C@H](OC(=O)c2cc(O)c(O)c(O)c2)[C@@H](OC(=O)c2cc(O)c(O)c(O)c2)[C@@H]1OC(=O)c1cc(O)c(O)c(O)c1)c1cc(O)c(O)c(O)c1` [PENTAGALLOYL GLUCOSE], the Activity with Rattus norvegicus [1] was -7.1 mmHg.
Regarding `O=C1O[C@@H]2[C@@H](OC(=O)c3cc(O)c(O)c(O)c3-c3c1cc(O)c(O)c3O)[C@H](O)O[C@@H]1COC(=O)c3cc(O)c(O)c(O)c3-c3c(O)c(O)c4oc(=O)c5c(c(O)c(O)c6oc(=O)c3c4c65)-c3c(cc(O)c(O)c3O)C(=O)O[C@@H]21` [PUNICALAGIN], in the test on Rattus norvegicus [2], the ED50 came to 5.4 mg/kg. Besides, the Activity in the test with Rattus norvegicus [8] was -63.4 mmHg. Further, in the test with Rattus norvegicus [9], the result was Active.

(Values after ChEMBL document CHEMBL1147357, “Antihypertensive Activity of Corilagin and Chebulinic Acid, Tannins from Lumnitzera, racemosa” (1993).)
